Here are results for five compounds from patent US8017346B2, “Method of quantifying the G protein-coupled receptor (GPCR)/G protein coupling using a cell membrane array” (Universidad Del Pais Vasco, priority 2005, dated 2011).

Peptide text beside a SMILES is read from it.

In this assay the test system is galanin receptors. In words: [35S]GTPγS autoradiography on tissue membrane arrays with galanin receptor ligands. The note with it: for [35S]GTPγS fixing in the presence of ligand versus baseline: pituitary gland membranes, tissue array (FIG. 4); for effect on the action of galnon on [35S]GTPγS fixing: combination with galnon, tissue arrays (FIG. 5). Format: biochemical, rat. The source says: 5 male Sprague Dawley rats (250-275 g) were anesthetized and sacrificed according to the guide approved by the Ethics Committee of the Faculty of Medicine of the University of the Basque Country, following the internationally accepted guidelines (86/609/EEC). The organs and tissue which were to be used in the experiment (pancreas, stomach, small intestine, spleen, heart, lung, liver, testicle, vas deferens, kidney, suprarenal glands, bone marrow and brain: frontal cortex, striatum, brain stem, pituitary gland, olfactory nuclei, hippocampus, hypothalamus, thalamus, colliculus and cerebellum) were then removed. These samples were stored at −70° C. until the experiment was carried out.
The tissue samples (1 g) were homogenized using a teflon-glass homogenizer (10 strokes at 1,500 rpm) in 30 volumes of homogenization buffer [1 mM ethylene glycol-bis(β-aminoethyl)-N,N,N′,N′-tetraacetic acid (EGTA), 3 mM MgCl2, 1 mM dithiothreitol (DTT) and 50 mM Tris-HCl, pH 7.4] supplemented with […] sucrose. The crude homogenate was centrifuged at 3,000×g and at 4° C. for 5 minutes and the resulting supernatant was again centrifuged at 40,000×g for 10 minutes (4° C.). The pellet was washed in 20 volumes of homogenization buffer and re-centrifuged in the same conditions. Aliquots were carried out and stored at −70° C. The protein content was determined according to the Bradford method [Bradford M M., Anal Biochem 1976; 72:248-54] using bovine serum albumin (BSA) as a standard.
1 mg/ml aliquots of each tissue were taken and with this suspension, 1 μl microspots were made on glass supports (slides) which were previously treated with concentrated orthophosphoric acid (85%); to that end, the slides were first washed with acetone and then with anhydrous isopropanol, they were dried and finally submersed in concentrated orthophosphoric acid (85%) for 24 hours, they were washed with distilled water (Millipore) and air-dried. The arrays were frozen at −70° C. until the experiment was carried out.
The slides with tissue sections were allowed to dry for 15 minutes at room temperature. The tissue section were then pre-incubated in assay buffer at pH 7.4 [50 mM Tris-HCl, 3 mM MgCl2, 0.2 mM EGTA, 100 mM NaCl, 3 mU/ml adenosine deaminase] for 20 minutes at room temperature to eliminate, as much as possible, the presence of endogenous neurotransmitters; afterwards, the sections were pre-incubated again in the assay buffer supplemented with guanosine diphosphate (GDP) (2 mM) and DTT (1 mM).
The slides were then incubated for 2 hours at 30° C. in the previous assay buffer, to which the following substances were added according to the different conditions of the experiment:
Baseline: 0.04 nM [^35S] GTPγS
Activated: 0.04 nM [^35S] GTPγS+agonist
Inhibited: 0.04 nM [^35S]GTPγS+agonist+antagonist
Non-specific: 0.04 nM [^35S] GTPγS+10 μM GTPγS
Once this time had elapsed, 2 washings of 15 minutes in the buffer 50 mM Tris-HCl, pH 7.4 at 4° C. were carried out. After the second washing, the sections were submersed in distilled water at 4° C. to eliminate the salts and the slide was dried by means of applying a cold air current.
The slides with the corresponding sections were then exposed to a radiosensitive film (Kodak Biomax MR) which was developed in a manner similar to a photographic film. The labeling was quantified according to the different gray densities at nCi/g of tissue equivalent. To that end, each film was exposed together with the previously calibrated commercial standards (Amersham). The quantification was carried out with microscopic anatomical resolution in a computerized image analysis system, using NIH-image software, of G protein activation.
The following ligands were used to study [^35S] GTPγS fixing in the absence (baseline) and in the presence of galanin receptor ligands: galanin, galnon, gal (2-11), M15 [galanin-(1-13)-substance P-5-11 amide], M35 [galanin-(1-13)-bradykinin-(2,9) amide] and M40 [galanin-(1-13)-[…]amide].
Background: GTPγS is a poorly hydrolysed GTP analogue; its binding reports G protein activation.

In the case of gal (2-11): galanin receptor ligand, the “[35S]GTPγS fixing in the presence of ligand versus baseline” value is “increase”.

“galanin-(1-13)-substance P-5-11 amide [M15]”: the “[35S]GTPγS fixing in the presence of ligand versus baseline” value is listed as “increase”.

As for “galanin-(1-13)-Pro-Pro-Ala-Leu-Ala-Leu-Ala-Leu-Ala amide [M40]”, the “effect on the action of galnon on [35S]GTPγS fixing” value is “antagonized” and the “[35S]GTPγS fixing in the presence of ligand versus baseline” value was “increase”.

Consider “galanin-(1-13)-bradykinin-(2,9) amide [M35]”, for which the “effect on the action of galnon on [35S]GTPγS fixing” value was “antagonized” and the “[35S]GTPγS fixing in the presence of ligand versus baseline” value is given as “increase”.

With `Cc1cc(=O)oc2cc(NC(=O)[C@H](CCCCN)NC(=O)[C@H](CC3CCCCC3)NC(=O)OCC3c4ccccc4-c4ccccc43)ccc12` [galnon] (HELM PEPTIDE1{[O=C(OCC1c2ccccc2-c2ccccc21)[*:2]].[Cha].K.[Cc1cc(=O)oc2cc(N[*:1])ccc12]}$$$$V2.0), the “[35S]GTPγS fixing in the presence of ligand versus baseline” value is recorded as “increase”.
